Test results published in patent US20070037783A1, “Migrastatin analogs and uses thereof” (priority 2003, published 2007).

Columns and labels:
4T1 tumor cells = assay: Cell proliferation assay (MTT); conditions: MTT, 48 h; up to 20 μM
Experimental: Cell Proliferation Assay: 4×10^4 of 4T1 tumor cells in RPMI-1640 medium containing 10% FBS were seeded into wells of 96-multiwell plates (Becton-Dickinson) in the presence or absence of chemical compounds and then incubated at 37° C. for 48 h. An MTT kit (Cell Proliferation Kit I, Roche) (a colorimetric assay) was used to quantify cell proliferation and viability. The number of living cells, thus the total metabolic activity, directly correlates to the amount of purple formazan crystals formed (monitored by the absorbance).

[1] = system: 4T1 mouse breast tumor cells; assay: Boyden chamber cell migration assay with 4T1 tumor cells; format: cell-based; conditions: chamber cell migration, 6-8 h; average of three experiments; read-out: IC50 (4T1 tumor cells)
Experimental: The biological evaluation of the compounds (in terms of their ability to inhibit cell migration) was accomplished in a Boyden chamber cell migration assay. In this assay, mouse breast tumor cells (4T1 cells) or endothelial cells (HUVECs) are seeded on the upper chamber of a transwell insert. Growth factor-containing serum is added to the lower chamber.
Chamber Cell Migration Assay (Tables 4 and 6): Cell migrations were assayed with Boyden chambers [8.0 μm pore size, polyethylene terephthalate membrane, FALCON cell culture insert (Becton-Dickinson)]. 4T1 mouse breast tumor cells or HUVECs were trypsinized and counted. 300 μl of 5-10×10^4 cells in serum-free medium was added to the upper chamber and 500 μl of medium with 10% fetal bovine serum (FBS) was added to the lower chamber. […] Cells on the inside of the transwell inserts were removed with a cotton swab, and cells on the underside of the insert were fixed and stained. Photographs of three random regions were taken and the number of cells was counted to calculate the average number of cells that have transmigrated.

[2] = system: 4T1 mouse breast tumor cells; assay: Wound-healing assay with 4T1 cells (FIG. 6); format: cell-based; conditions: with serum; 200 μM; overnight
Source text: In the wound healing assay, standard scratches (i.e., wounds) were made through a confluent 4T1 cell layer. In the absence of serum, cells would not migrate across the empty space created by application of the scratch. Upon addition of serum containing migration-enabling factors, migration of 4T1 cells across the scratch was induced. Exposure to these cells to inventive compounds allowed the evaluation of the cell migration inhibitory activity of these compounds.
Wound-Healing Assay (See FIG. 6). 4T1 mouse breast tumor cells in RPMI-1640 medium containing 10% fetal bovine serum (FBS) were seeded into wells of 24-multiwell plates (Becton-Dickinson). After cells grew to confluence, wounds were made with sterile pipette tips. Cells were washed with Phosphate Buffered Saline (PBS) and refreshed with growth medium containing different concentrations of chemical compounds. After overnight incubation at 37° C., cells were fixed and photographed.

[3] = Mouse plasma stability study (HPLC); format: in vitro ADME
Experimental: Mouse Plasma Stability Studies (Table 5): HPLC conditions: The sample is injected and separated using an Inertsil ODS3 6u 3×150 mm column with a mobile phase of MeCN and water (50% for migrastatin) at a flow of 0.4 mL/min, monitored at 220 nm at 0.02 AUFS (the retention time for migrastatin is ca. 4 min, the identity of this peak was confirmed by mass spectral analysis). Incubation and sample preparation conditions: A solution (ca. 30 mM) of chemical compound (Table 5) in DMSO is prepared. 2 μL of the solution is added to a mixture containing 200 μL of mouse plasma and 800 μL of PBS. The resulting solution is put into a water bath at 37° C., and 100 μL of sample is withdrawn at 10, 20, 30, 45, and 60 min. The precipitate is removed by centrifugation and 20 μL of the supernatant is injected onto the HPLC.

[4] = system: HUVECs (human umbilical vein endothelial cells); assay: Boyden chamber cell migration assay with HUVECs; format: cell-based; conditions: chamber cell migration; average of three experiments; read-out: IC50 (HUVEC)
Experimental: Chamber Cell Migration Assay (Tables 4 and 6): Cell migrations were assayed with Boyden chambers [8.0 μm pore size, polyethylene terephthalate membrane, FALCON cell culture insert (Becton-Dickinson)]. 4T1 mouse breast tumor cells or HUVECs were trypsinized and counted. 300 μl of 5-10×10^4 cells in serum-free medium was added to the upper chamber and 500 μl of medium with 10% fetal bovine serum (FBS) was added to the lower chamber. The transwells were incubated for 6-8 h at 37° C. with different concentrations of chemical compound in both upper and lower chamber. Cells on the inside of the transwell inserts were removed with a cotton swab, and cells on the underside of the insert were fixed and stained. Photographs of three random regions were taken and the number of cells was counted to calculate the average number of cells that have transmigrated.

[5] = system: 4T1 tumor lung metastasis; assay: 4T1 tumor lung metastasis in syngeneic mice (6-thioguanine clonogenic assay); format: in vivo, BALB/c mice; conditions: for lung metastasis colonies: lungs Day 28, mean and standard deviation
Source text: Inhibition of metastasis of mouse breast tumors by migrastatin alogs in mice. 4T1 mouse breast tumor cell line was isolated from a single spontaneously arising mammary tumor from a BALB/BfC3H mouse (MMTV+).^62 The 4T1 tumor closely mimics human breast cancer in its anatomical site, immunogenecity, growth characteristics, and metastatic properties.^63 From the mammary gland, 4T1 tumor spontaneously metastasizes to a variety of target organs including the lung, bone, brain, and liver through primarily a hematogenous rout.^64
To assess the efficacy of therapeutic application of migrastatin analogs in the 4T1 murine mammary carcinoma models, we administered migrastatin analogs (macroketone and macrolactam) to BALB/c mice carrying the 4T1 tumors.
(§1) Female BALB/c mice (6-8 week old) were purchased from the Jackson Laboratory (Bar Harbor, Me.). All mice were housed at the Weill Medical College of Cornell University Animal Facilities in accordance with the Principles of Animal Care (NIH publication no. 85-23, revised 1985). 4T1 tumor cells (1×10^5) were injected subcutaneously into the abdominal mammary gland area of mice in 0.1 ml of a single-cell suspension in phosphate buffered saline (PBS) on Day 0. The dosage of tumor implantation was empirically determined to give rise to tumor of ˜10 mm in diameter in untreated wild type mice in 21-23 days. On Day 7, when the tumors averaged in size ˜4-5 mm in diameter, migrastatin analogs or control PBS saline were given every day by intraperitoneal injection at 10 mg/kg or 20 mg/kg per mouse until Day 25. On Day 28, the mice were sacrificed. This regiment of migrastatin analogs was well tolerated with no signs of overt toxicity. Every group included five mice. Primary tumors were measured using electronic calipers on the day when the mice were sacrificed. Tumor size was the square root of the product of two perpendicular diameters. Numbers of metastatic 4T1 cells in lung were determined by the clonogenic assay.^63 In brief, lungs were removed from each mouse on Day 28, finely minced and digested in 5 ml of enzyme cocktail containing 1× PBS and 1 mg/ml collagenase type IV for 2 hours at 37° C. on a platform rocker. After incubation, samples were filtered through 70 uM nylon cell strainers and washed twice with PBS. Resulting cells were suspended and plated serially diluted in 10 cm tissue culture dishes in medium RPMI1640 containing 60 uM thioguanine for clonogenic growth. 6-Thioguanine-resistant tumor cells formed foci after 14 days, at which time they were fixed with methanol and stained with 0.03% methylene blue for counting.
Treatment 4T1 tumor lung metaotmis in smgencie mice with Kigrastatin analogs (See, FIG. 4). 4T1 tumor cells (10^5) were injected s.c. in the abdominal mammary gland with 0.1 ml of a single-cell suspension. Macroketone or macrolactam at 10 mg/kg or 20 mg/kg was given i.p. on Day 7 when the tumor size was about 5 mm in diameter, and everyday until Day 25. On Day 28, the mice were sacrificed. Each group comprised five mice. Lung metastasis was measured by the 6-thiogunine clonogenic assay. The mean and standard deviation are presented. In the control group (daily PBS injection), there were 61300±18900 colonies.

4T1 tumors = assay: Effect on 4T1 primary tumor growth in mice; format: in vivo, BALB/c mice; conditions: 10 mg/kg i.p. daily Day 7-25; tumors measured Day 28
Experimental: as §1, with “This regiment of migrastatin analogs was well tolerated with no signs of overt toxicity. Every group included five mice.” left out, “Tumor size was the square root of the product of two perpendicular diameters.” left out, “After incubation, samples were filtered through 70 uM nylon cell strainers and washed twice with PBS. Resulting cells were suspended and plated serially diluted in 10 cm tissue culture dishes in medium RPMI1640 containing 60 uM thioguanine for clonogenic growth. 6-Thioguanine-resistant tumor cells formed foci after 14 days, at which time they were fixed with methanol and stained with 0.03% methylene blue for counting.” left out
Effect of migrastatin analogs on 4T1 tumor cell growth (See, FIG. 5). […] On Day 28, primary tumors were measured using electronic calipers. […]

Structure (SMILES) | cytotoxic or anti-proliferative effects on 4T1 cells, in words (4T1 tumor cells) | IC50 [1] | inhibition of 4T1 cell migration across the scratch, in words [2] | stability (t1/2, mouse plasma) ([3]; mouse plasma/PBS, 37° C., sampled up to 60 min) | stability (mouse plasma), in words ([3]; stable = intensity of HPLC signal unchanged over 60 min of incubation) | IC50 [4] | inhibition of lung metastasis ([5]; 10 mg/kg i.p. daily Day 7-25) | lung metastasis colonies ([5]; 10 mg/kg i.p. daily Day 7-25) | inhibition of lung metastasis ([5]; 20 mg/kg i.p. daily Day 7-25) | lung metastasis colonies ([5]; 20 mg/kg i.p. daily Day 7-25) | effect on growth of 4T1 primary tumors, in words (4T1 tumors)
COC1C=CCCCCC(=O)OCC(C)=CC(C)C1O (stereo not shown) [macrolactone (48), Macrolactone] | did not have any cytotoxic or anti-proliferative effects up to 20 μM | 24 nM | almost completely inhibited cell migration across the scratch | <5 min | hydrolyzed rapidly | 125 nM |  |  |  |  | 
COC1C=CCCCCC(=O)CCC(C)=CC(C)C1O (stereo not shown) [macroketone (60), Macroketone] |  | 100 nM |  |  |  | 12000 nM | ~94% | 3875±2525 colonies | ~99% | 650±575 colonies | minor effect on tumor growth
